Results as given in publication PMC9823097, “Dysregulation of PRMT5 in chronic lymphocytic leukemia promotes progression with high risk of Richter’s transformation” (Nature Communications, 2023).
Where “and” joins values, the source holds several entries; their conditions need not be identical. Identical values can stand only once.

Assays:
Mec-1 cells = assay: Cell growth curves over 12 days, Mec-1; format: cell-based
Method: Live cells/mL were counted on days 3, 6, 10, and 12. […] The split factor was calculated at indicated time points by dividing the counted cells/mL by 3E5. Cell growth was extrapolated over time by multiplying the subsequent cell count by the previous split factor. Cell growth is plotted as fold change relative to DMSO-treated cells.

[1] = test system: Eµ-PRMT5/TCL1 Cd19+Cd5+ spleen cells engrafted into immunocompetent C57/BL6J mice; assay: Adoptive transfer of Eµ-PRMT5/TCL1 spleen cells into C57/BL6J mice, treatment study; format: in vivo
Method: For adoptive transfer, viable Cd19^+Cd5^+ cells (5 × 10^6) from the spleen of an Eµ-PRMT5/TCL1 transgenic mouse with active CLL-like leukemia (>80% circulating in peripheral blood) and palpable splenomegaly were engrafted by tail vein into immunocompetent C57/BL6J female mice. Engrafted mice were randomly assigned to treatment conditions: PRT382 10 mg/kg, EPZ015666 50 mg/kg, or vehicle (0.5% methylcellulose, 0.1% tween) at 1-week post engraftment. All treatments were administered by oral gavage 4 contiguous days per week (Mon-Thurs). Predefined euthanasia criteria for mice in all transgenic colonies and murine transplant models were followed and included lethargy, impaired motility, splenomegaly, enlarged lymph nodes and/or superficial lymphoid tumors greater than 1.6 cm in diameter (or cumulative diameter of 1.6 cm if multiple tumors), decrease in body weight (>20%), ruffled fur, hunched back, failure to nest, and loss of appetite.

[2] = Mec-1, continuous exposure over 12 days

SMILES: CON=c1nc[nH]c2c1ccn2[C@@H]1O[C@H]([C@H](O)c2ccc(Cl)c(Cl)c2)[C@@H](O)[C@H]1O.Cl [PRT382, (2 R,3 S,4 R,5 R)-2-[(R)-(3,4-dichlorophenyl)-hydroxy-methyl]-5-[(4Z)-4-methoxyimino-1H-pyrrolo[2,3-d]pyrimidin-7-yl]tetrahydrofuran-3,4-diol hydrochloride]
- Rep 3 Live Cells [Fold Change] (Mec-1 cells; Mec-1, 1 nM, day 10): 898 Fold Change
- Rep 1 Live Cells [Fold Change] (Mec-1 cells; Mec-1, 1 nM, day 12): 2650 Fold Change
- Rep 2 Live Cells [Fold Change] (Mec-1 cells; Mec-1, 1 nM, day 12): 2940 Fold Change
- Rep 3 Live Cells [Fold Change] (Mec-1 cells; Mec-1, 1 nM, day 12): 4480 Fold Change
- Rep 1 Live Cells [Fold Change] (Mec-1 cells; Mec-1, 10 nM, day 0): 1 Fold Change
- Rep 2 Live Cells [Fold Change] (Mec-1 cells; Mec-1, 10 nM, day 0): 1 Fold Change
- Rep 3 Live Cells [Fold Change] (Mec-1 cells; Mec-1, 10 nM, day 0): 1 Fold Change
- Rep 1 Live Cells [Fold Change] (Mec-1 cells; Mec-1, 10 nM, day 3): 8.13 Fold Change
- Rep 2 Live Cells [Fold Change] (Mec-1 cells; Mec-1, 10 nM, day 3): 8.43 Fold Change
- Rep 3 Live Cells [Fold Change] (Mec-1 cells; Mec-1, 10 nM, day 3): 7.78 Fold Change
- Rep 1 Live Cells [Fold Change] (Mec-1 cells; Mec-1, 10 nM, day 6): 70.5 Fold Change
- Rep 2 Live Cells [Fold Change] (Mec-1 cells; Mec-1, 10 nM, day 6): 65.2 Fold Change
- Rep 3 Live Cells [Fold Change] (Mec-1 cells; Mec-1, 10 nM, day 6): 77.4 Fold Change
- Rep 1 Live Cells [Fold Change] (Mec-1 cells; Mec-1, 10 nM, day 10): 909 Fold Change
- Rep 2 Live Cells [Fold Change] (Mec-1 cells; Mec-1, 10 nM, day 10): 1080 Fold Change
- Rep 3 Live Cells [Fold Change] (Mec-1 cells; Mec-1, 10 nM, day 10): 887 Fold Change
- Rep 1 Live Cells [Fold Change] (Mec-1 cells; Mec-1, 10 nM, day 12): 3770 Fold Change
- Rep 2 Live Cells [Fold Change] (Mec-1 cells; Mec-1, 10 nM, day 12): 3720 Fold Change
- Rep 3 Live Cells [Fold Change] (Mec-1 cells; Mec-1, 10 nM, day 12): 6410 Fold Change
- Rep 1 Live Cells [Fold Change] (Mec-1 cells; Mec-1, 100 nM, day 0): 1 Fold Change
- Rep 2 Live Cells [Fold Change] (Mec-1 cells; Mec-1, 100 nM, day 0): 1 Fold Change
- Rep 3 Live Cells [Fold Change] (Mec-1 cells; Mec-1, 100 nM, day 0): 1 Fold Change
- Rep 1 Live Cells [Fold Change] (Mec-1 cells; Mec-1, 100 nM, day 3): 6.3 Fold Change
- Rep 2 Live Cells [Fold Change] (Mec-1 cells; Mec-1, 100 nM, day 3): 5.17 Fold Change
- Rep 3 Live Cells [Fold Change] (Mec-1 cells; Mec-1, 100 nM, day 3): 4.6 Fold Change
- Rep 1 Live Cells [Fold Change] (Mec-1 cells; Mec-1, 100 nM, day 6): 14 Fold Change
- Rep 2 Live Cells [Fold Change] (Mec-1 cells; Mec-1, 100 nM, day 6): 17.1 Fold Change
- Rep 3 Live Cells [Fold Change] (Mec-1 cells; Mec-1, 100 nM, day 6): 13.3 Fold Change
- Rep 1 Live Cells [Fold Change] (Mec-1 cells; Mec-1, 100 nM, day 10): 63 Fold Change
- Rep 2 Live Cells [Fold Change] (Mec-1 cells; Mec-1, 100 nM, day 10): 155 Fold Change
- Rep 3 Live Cells [Fold Change] (Mec-1 cells; Mec-1, 100 nM, day 10): 73.7 Fold Change
- Rep 1 Live Cells [Fold Change] (Mec-1 cells; Mec-1, 100 nM, day 12): 100 Fold Change
- Rep 2 Live Cells [Fold Change] (Mec-1 cells; Mec-1, 100 nM, day 12): 297 Fold Change
- Rep 3 Live Cells [Fold Change] (Mec-1 cells; Mec-1, 100 nM, day 12): 92.2 Fold Change
- Rep 1 Live Cells [Fold Change] (Mec-1 cells; Mec-1, 1 µM, day 0): 1 Fold Change
- Rep 2 Live Cells [Fold Change] (Mec-1 cells; Mec-1, 1 µM, day 0): 1 Fold Change
- Rep 3 Live Cells [Fold Change] (Mec-1 cells; Mec-1, 1 µM, day 0): 1 Fold Change
- Rep 1 Live Cells [Fold Change] (Mec-1 cells; Mec-1, 1 µM, day 3): 3.87 Fold Change
- Rep 2 Live Cells [Fold Change] (Mec-1 cells; Mec-1, 1 µM, day 3): 4.23 Fold Change
- Rep 3 Live Cells [Fold Change] (Mec-1 cells; Mec-1, 1 µM, day 3): 5.4 Fold Change
- Rep 1 Live Cells [Fold Change] (Mec-1 cells; Mec-1, 1 µM, day 6): 7.67 Fold Change
- Rep 2 Live Cells [Fold Change] (Mec-1 cells; Mec-1, 1 µM, day 6): 5.09 Fold Change
- Rep 3 Live Cells [Fold Change] (Mec-1 cells; Mec-1, 1 µM, day 6): 4.33 Fold Change
- Rep 1 Live Cells [Fold Change] (Mec-1 cells; Mec-1, 1 µM, day 10): 8.99 Fold Change
- Rep 2 Live Cells [Fold Change] (Mec-1 cells; Mec-1, 1 µM, day 10): 4.86 Fold Change
- Rep 3 Live Cells [Fold Change] (Mec-1 cells; Mec-1, 1 µM, day 10): 2.73 Fold Change
- Rep 1 Live Cells [Fold Change] (Mec-1 cells; Mec-1, 1 µM, day 12): 3.31 Fold Change
- Rep 2 Live Cells [Fold Change] (Mec-1 cells; Mec-1, 1 µM, day 12): 4.55 Fold Change
- Rep 3 Live Cells [Fold Change] (Mec-1 cells; Mec-1, 1 µM, day 12): 1.12 Fold Change
- dose at which growth inhibition begins (Mec-1 cells; [2]): 100 nM
- effect on growth potential (cell growth) (Mec-1 cells; [2]): time and dose-dependent growth inhibition
- Week 1 CD19+/B220dim ([1]; Figure 7F, per mouse, week 1, in % (unit assumed)): 14.94 and 11.13 and 14.86 and 15.24 and 10.03 and 10.93 and 22.62 and 11.33 and 10.17 and 14.2
- Week 2 CD19+/B220dim ([1]; Figure 7F, per mouse, week 2, in % (unit assumed)): 13.43 and 12.86 and 10.14 and 23.82 and 13.56 and 16.79 and 25.72 and 21.61 and 19.95 and 20.17
- Week 3 CD19+/B220dim ([1]; Figure 7F, per mouse, week 3, in % (unit assumed)): 26.89 and 23.33 and 20.67 and 34.07 and 24.63 and 26.03 and 34.34 and 21.21 and 26.17 and 22.42
- Week 4 CD19+/B220dim ([1]; Figure 7F, per mouse, week 4, in % (unit assumed)): 41.39 and 38.3 and 24.43 and 39.63 and 41.81 and 49.51 and 51.09 and 40.09 and 18.3 and 35.71
- Week 5 CD19+/B220dim ([1]; Figure 7F, per mouse, week 5): 59.47 and 50.76 and 31.63 and 42.2 and 57.43 and 71.78 and 71.22 and 54.4 and 38.84 and 43.16
- Week 6 CD19+/B220dim ([1]; Figure 7F, per mouse, week 6, in % (unit assumed)): 77.7 and 46.25 and 37.53 and 72.87 and 45.24 and 51.74 and 53.46 and 63.05 and 57.02 and 47.66
- Week 7 CD19+/B220dim ([1]; Figure 7F, per mouse, week 7, in % (unit assumed)): 84.05 and 64.76 and 55.81 and 74.55 and 67.6 and 65.33 and 67.88 and 74.71 and 65.7 and 77.54
- Week 8 CD19+/B220dim ([1]; Figure 7F, per mouse, week 8): 89.79 and 78.47 and 68.08 and 80.27 and 72.86 and 72.85 and 63.41 and 82.55 and 81.05 and 82.92
- Week 9 CD19+/B220dim ([1]; Figure 7F, per mouse, week 9): 91.31 and 75.18 and 73.48 and 85.11 and 81.63 and 77.6 and 71.82 and 88.55 and 87.37 and 84.51
- Week 10 CD19+/B220dim ([1]; Figure 7F, per mouse, week 10, in % (unit assumed)): 76.49 and 84.3 and 76.64 and 83.91 and 87.5 and 87.78 and 77.93 and 88.18 and 89.1 and 91.37
- Week 11 CD19+/B220dim ([1]; Figure 7F, per mouse, week 11, in % (unit assumed)): 84.23 and 77.24 and 87.2 and 87.38 and 85.21 and 81.05 and 94.62 and 92.7 and 90.88
- Week 12 CD19+/B220dim ([1]; Figure 7F, per mouse, week 12): 87.17 and 83.54 and 90.72 and 88.55 and 85.11
- Week 13 CD19+/B220dim ([1]; Figure 7F, per mouse, week 13, in % (unit assumed)): 69.75 and 81.14 and 92.04 and 85.97 and 82.89
- Endpoint ([1]; Figure 7G, survival endpoint indicator, per mouse): 1
- Days since enrollment ([1]; Figure 7G, survival, per mouse): 64 days and 85 days and 92 days and 71 days and 84 days
- Spleen weight ([1]; Figure 7H, per mouse): 0.86 g and 1.01 g and 0.37 g and 0.52 g and 0.24 g and 0.7 g and 0.84 g
- survival compared to EPZ015666 or vehicle ([1]; PRT382 10 mg/kg): significant extension in survival
- hazard ratio, PRT382 vs EPZ015666 (Mantel–Cox) ([1]; PRT382 10 mg/kg vs EPZ015666 50 mg/kg, survival): 0.65
- PRMT5 target modulation, immunoblot of splenic B cells ([1]; PRT382 10 mg/kg, EPZ015666 50 mg/kg): confirmed PRMT5 target modulation
- Median survival post-enrollment ([1]; PRT382 10 mg/kg, EPZ015666 50 mg/kg, oral gavage 4 contiguous days per week): 77 days
- hazard ratio, PRT382 vs vehicle (Mantel–Cox) ([1]; PRT382 10 mg/kg, survival): 0.21
- spleen weight and volume compared to EPZ015666 or vehicle ([1]; at ERC): significantly reduced weight and volume
- leukemic expansion across non-lymphoid tissues (histopathology, liver) ([1]; compared with vehicle or EPZ015666-treated mice): decrease in leukemic expansion
- Spleen volume ([1]; individual mice, Supplemental Figure 6F): 645.24 mm3 and 1183.96 mm3 and 457.289 mm3 and 271.152 mm3 and 253.789 mm3 and 859.967 mm3 and 562.493 mm3
- rate of peripheral disease (CLL-like cells in peripheral blood) ([1]; weeks 2-7 post engraftment, compared to EPZ015666 or vehicle): reduced the rate of peripheral disease
